# Assay results published in patent publication US8129367B2, “Compounds for the treatment of Hepatitis C” (Bristol-Myers Squibb Company, priority 2007, dated 2012).
# Key:
# HCV NS5B = target: T1, HCV NS5B (Hepatitis C virus genotype 1b, UniProt Q9WMX2); assay: HCV NS5B RdRp enzyme assay; format: biochemical; conditions: HCV NS5B RdRp genotype 1b enzyme
# T1 construct: The protein was expressed with an 18 amino acid C-terminal truncation to enhance the solubility; made in house; host or cells: E. coli BL21(DE3)
# Description: HCV NS5B RdRp cloning, expression, and purification. The cDNA encoding the NS5B protein of HCV, genotype 1b, was cloned into the pET21a expression vector. The protein was expressed with an 18 amino acid C-terminal truncation to enhance the solubility. The E. coli competent cell line BL21(DE3) was used for expression of the protein. Cultures were grown at 37° C. for ˜4 hours until the cultures reached an optical density of 2.0 at 600 nm. The cultures were cooled to 20° C. and induced with 1 mM IPTG. Fresh ampicillin was added to a final concentration of 50 μg/ml and the cells were grown overnight at 20° C.
# Cell pellets (3 L) were lysed for purification to yield 15-24 mgs of purified NS5B. The lysis buffer consisted of 20 mM Tris-HCl, pH 7.4, 500 mM NaCl, 0.5% triton X-100, 1 mM DTT, 1 mM EDTA, 20% glycerol, 0.5 mg/ml lysozyme, 10 mM MgCl2, 15 ug/ml deoxyribonuclease I, and Complete™ protease inhibitor tablets (Roche). After addition of the lysis buffer, frozen cell pellets were resuspended using a tissue homogenizer. To reduce the viscosity of the sample, aliquots of the lysate were sonicated on ice using a microtip attached to a Branson sonicator. The sonicated lysate was centrifuged at 100,000×g for 1 hr at 4° C. and filtered through a 0.2 μm filter unit (Corning).
# The protein was purified using two sequential chromatography steps: Heparin sepharose CL-6B and polyU sepharose 4B (Pharmacia). The chromatography buffers were identical to the lysis buffer but contained no lysozyme, deoxyribonuclease I, MgCl2 or protease inhibitor and the NaCl concentration of the buffer was adjusted according to the requirements for charging the protein onto the column. Each column was eluted with a NaCl gradient which varied in length from 5-50 column volumes depending on the column type. After the final chromatography step, the resulting purity of the enzyme is >90% based on SDS-PAGE analysis. The enzyme was aliquoted and stored at −80° C.
# Standard HCV NS5B RdRp enzyme assay. HCV RdRp genotype 1b assays were run in a final volume of 60 μl in 96 well plates (Corning 3600). The assay buffer is composed of 20 mM Hepes, pH 7.5, 2.5 mM KCl, 2.5 mM MgCl2, 1 mM DTT, 1.6 U RNAse inhibitor (Promega N2515), 0.01 mg/ml BSA (Sigma B6917), and 2% glycerol. All compounds were serially diluted (3-fold) in DMSO and diluted further in water such that the final concentration of DMSO in the assay was 2%. HCV RdRp genotype 1b enzyme was used at a final concentration of 28 nM. A polyA template was used at 6 nM, and a biotinylated oligo-dT12 primer was used at 180 nM final concentration. Template was obtained commercially (Amersham 27-4110). Biotinylated primer was prepared by Sigma Genosys. 3H-UTP was used at 0.6 μCi (0.29 μM total UTP). Reactions were initiated by the addition of enzyme, incubated at 30° C. for 60 min, and stopped by adding 25 μl of 50 mM EDTA containing SPA beads (4 μg/μl, Amersham RPNQ 0007). Plates were read on a Packard Top Count NXT after >1 hr incubation at room temperature.
# Modified HCV NS5B RdRp enzyme assay. A modified enzyme assay was performed essentially as described for the standard enzyme assay except for the following: The biotinylated oligo dT12 primer was precaptured on streptavidin-coated SPA beads by mixing primer and beads in assay buffer and incubating at room temperature for one hour. Unbound primer was removed after centrifugation. The primer-bound beads were resuspended in 20 mM Hepes buffer, pH 7.5 and used in the assay at final concentrations of 20 nM primer and 0.67 μg/μl beads. Order of addition in the assay: enzyme (1.75 nM) was added to diluted compound followed by the addition of a mixture of template (0.36 nM), 3H-UTP (0.6 μCi, 0.29 μM), and primer-bound beads, to initiate the reaction; concentrations given are final. Reactions were allowed to proceed for 4 hours at 30° C.
# IC50 values for compounds were determined using seven different [I]. […]
# HCV replicon cells = assay: HCV replicon FRET / luciferase assay; format: cell-based; conditions: Hepatitis C virus; 50% reduction in FRET or luciferase activity in HCV replicon cells
# Description: FRET Assay Preparation. The HCV FRET screening assay was performed in 96-well cell culture plates. The FRET peptide (Anaspec, Inc.) (Taliani et al., Anal. Biochem. 1996, 240, 60-67) contains a fluorescence donor, EDANS, near one end of the peptide and an acceptor, DABCYL, near the other end. The fluorescence of the peptide is quenched by […] resonance energy transfer (RET) between the donor and the acceptor, but as the NS3 protease cleaves the peptide the products are released from RET quenching and the fluorescence of the donor becomes apparent. The assay reagent was made as follows: 5× cell Luciferase cell culture lysis reagent from Promega (#E153A) diluted to 1× with dH2O, NaCl added to 150 mM final, the FRET peptide diluted to 20 μM final from a 2 mM stock.
# To prepare plates, HCV replicon cells, with or without a Renilla luciferase reporter gene, were trypsinized and plated in a 96-well plate with titrated test compounds added in columns 3 through 12; columns 1 and 2 contained a control compound (HCV control inhibitor), and the bottom row contained cells with DMSO only. The plates were then placed in a CO2 incubator at 37° C.
# Assays. Subsequent to addition of the test compounds described above (FRET Assay Preparation), at various times the plate was removed and Alamar blue solution (Trek Diagnostics, #00-100) was added to measure cellular toxicity. After reading in a Cytoflour 4000 instrument (PE Biosystems), plates were rinsed with PBS and then used for FRET assay by the addition of 30 ul of the FRET peptide assay reagent described above (FRET Assay Preparation) per well. The plate was then placed into the Cytoflour 4000 instrument which had been set to 340 excite/490 emission, automatic mode for up to 20 cycles and the plate read in a kinetic mode. Typically, the signal to noise using an endpoint analysis after the reads was at least three-fold. Alternatively, after Alamar blue reading, plates were rinsed with PBS, then used for luciferase assay using the Promega Dual-Glo Luciferase Assay System or the Promega EnduRen Live Cell Substrate assay.
# Compound analysis was performed by quantification of the relative HCV replicon inhibition and the relative cytotoxicity values. To calculate cytoxicity values, the average Alamar Blue fluorescence signals from the control wells were set as 100% non-toxic. The individual signals in each of the compound test wells were then divided by the average control signal and multiplied by 100% to determine […]. To calculate the HCV replicon inhibition values, an average background value was obtained from the two wells containing the highest amount of HCV control inhibitor at the end of the assay period. These numbers were similar to those obtained from naïve Huh-7 cells. The background numbers were then subtracted from the average signal obtained from the control wells and this number was used as 100% activity. The individual signals in each of the compound test wells were then divided by the averaged control values after background subtraction and multiplied by 100% to determine percent activity. EC50 values were calculated as the concentration which caused a 50% reduction in FRET or luciferase activity. The two numbers generated for the compound plate, percent cytoxicity and percent activity, were used to determine compounds of interest for further analysis.
# T1 sequence (Q9WMX2 2420-2992): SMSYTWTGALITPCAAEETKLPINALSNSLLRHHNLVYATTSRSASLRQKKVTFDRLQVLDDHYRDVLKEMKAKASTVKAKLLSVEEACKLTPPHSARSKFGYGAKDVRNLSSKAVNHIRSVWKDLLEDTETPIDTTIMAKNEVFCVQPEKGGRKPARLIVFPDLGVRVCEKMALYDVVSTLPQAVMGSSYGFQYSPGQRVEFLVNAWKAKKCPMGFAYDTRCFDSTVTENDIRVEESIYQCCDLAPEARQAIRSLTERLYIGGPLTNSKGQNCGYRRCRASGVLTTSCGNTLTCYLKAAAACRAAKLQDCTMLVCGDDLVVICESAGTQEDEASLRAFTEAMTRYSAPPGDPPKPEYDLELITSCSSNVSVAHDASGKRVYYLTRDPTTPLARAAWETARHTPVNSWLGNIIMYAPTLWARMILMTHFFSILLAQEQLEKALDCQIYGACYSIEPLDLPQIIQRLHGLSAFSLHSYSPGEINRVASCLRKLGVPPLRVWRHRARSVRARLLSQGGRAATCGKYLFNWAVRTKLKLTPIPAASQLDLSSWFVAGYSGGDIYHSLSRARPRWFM
Compound,IC50 (HCV NS5B) [nM],EC50 (HCV replicon cells) [nM]
COc1ccc2c(c1)C1CC1(C(=O)N1C3CCC1CN(C)C3)Cn1c-2c(C2CCCCC2)c2ccc(C(=O)NC(C)(C)C(=O)N(C)C)cc21 (stereo not drawn),4.2 to 500,4.2 to 500
COc1ccc2c(c1)C1CC1(C(=O)N1C3CCC1CN(C)C3)Cn1c-2c(C2CCCCC2)c2ccc(C(=O)NS(=O)(=O)C3(Cc4ccccc4)CC3)cc21 (stereo not drawn),4.2 to 500,4.2 to 500
CCC#CCC1(S(=O)(=O)NC(=O)c2ccc3c(C4CCCCC4)c4n(c3c2)CC2(C(=O)N3C5CCC3CN(C)C5)CC2c2cc(OC)ccc2-4)CC1 (stereo not drawn),4.2 to 500,4.2 to 500
COc1ccc2c(c1)C1CC1(C(=O)N1C3CCC1CN(C)C3)Cn1c-2c(C2CCCCC2)c2ccc(C(=O)NS(=O)(=O)C3([Si](C)(C)C)CC3)cc21 (stereo not drawn),4.2 to 500,4.2 to 500
COc1ccc2c(c1)C1CC1(C(=O)N1C3CCC1CN(C)C3)Cn1c-2c(C2CCCCC2)c2ccc(C(=O)NS(=O)(=O)C3(C(=O)c4ccccc4)CC3)cc21 (stereo not drawn),4.2 to 500,4.2 to 500
COc1ccc2c(c1)C1CC1(C(=O)N1C3CCC1CN(C)C3)Cn1c-2c(C2CCCCC2)c2ccc(C(=O)NS(=O)(=O)c3ccccc3C#N)cc21 (stereo not drawn),4.2 to 500,4.2 to 500
COCCS(=O)(=O)NC(=O)c1ccc2c(C3CCCCC3)c3n(c2c1)CC1(C(=O)N2C4CCC2CN(C)C4)CC1c1cc(OC)ccc1-3 (stereo not drawn),4.2 to 500,4.2 to 500
COc1ccc2c(c1)C1CC1(C(=O)N1C3CCC1CN(C)C3)Cn1c-2c(C2CCCCC2)c2ccc(C(=O)NS(=O)(=O)c3ccco3)cc21 (stereo not drawn),4.2 to 500,4.2 to 500
COc1ccc2c(c1)C1CC1(C(=O)N1C3CCC1CN(C)C3)Cn1c-2c(C2CCCCC2)c2ccc(C(=O)NS(=O)(=O)C3(C(=O)Nc4ccccc4)CC3)cc21 (stereo not drawn),4.2 to 500,4.2 to 500
COc1ccc2c(c1)C1CC1(C(=O)N1C3CCC1CN(C)C3)Cn1c-2c(C2CCCCC2)c2ccc(C(=O)NS(=O)(=O)c3c(C)noc3C)cc21 (stereo not drawn),4.2 to 500,4.2 to 500
COc1ccc2c(c1)C1CC1(C(=O)N1C3CCC1CN(C)C3)Cn1c-2c(C2CCCCC2)c2ccc(C(=O)NS(=O)(=O)c3cn(C)cn3)cc21 (stereo not drawn),4.2 to 500,4.2 to 500
COc1ccc2c(c1)C1CC1(C(=O)N1C3CCC1CN(C)C3)Cn1c-2c(C2CCCCC2)c2ccc(C(=O)NS(=O)(=O)c3ccc(C)cn3)cc21 (stereo not drawn),4.2 to 500,4.2 to 500
COc1ccc2c(c1)C1CC1(C(=O)N1C3CCC1CN(C)C3)Cn1c-2c(C2CCCCC2)c2ccc(C(=O)NS(=O)(=O)c3ccccc3)cc21 (stereo not drawn),4.2 to 500,4.2 to 500
COc1ccc2c(c1)C1CC1(C(=O)N1C3CCC1CN(C)C3)Cn1c-2c(C2CCCCC2)c2ccc(C(=O)NS(=O)(=O)c3cnccc3Cl)cc21 (stereo not drawn),4.2 to 500,4.2 to 500
C=CCC1(S(=O)(=O)NC(=O)c2ccc3c(C4CCCCC4)c4n(c3c2)CC2(C(=O)N3C5CCC3CN(C)C5)CC2c2cc(OC)ccc2-4)CC1 (stereo not drawn),4.2 to 500,4.2 to 500
COc1ccc2c(c1)C1CC1(C(=O)N1C3CCC1CN(C)C3)Cn1c-2c(C2CCCCC2)c2ccc(C(=O)NS(=O)(=O)c3cccs3)cc21 (stereo not drawn),4.2 to 500,4.2 to 500
COc1ccc2c(c1)C1CC1(C(=O)N1C3CCC1CN(C)C3)Cn1c-2c(C2CCCCC2)c2ccc(C(=O)NS(=O)(=O)CC3CCCO3)cc21 (stereo not drawn),4.2 to 500,4.2 to 500
COc1ccc2c(c1)C1CC1(C(=O)N1C3CCC1CN(C)C3)Cn1c-2c(C2CCCCC2)c2ccc(C(=O)NS(=O)(=O)C3CCOCC3)cc21 (stereo not drawn),4.2 to 500,4.2 to 500
COc1ccc2c(c1)C1CC1(C(=O)N1C3CCC1CN(C)C3)Cn1c-2c(C2CCCCC2)c2ccc(C(=O)NS(=O)(=O)Cc3ccccc3)cc21 (stereo not drawn),4.2 to 500,4.2 to 500
COc1ccc2c(c1)C1CC1(C(=O)N1C3CCC1CN(C)C3)Cn1c-2c(C2CCCCC2)c2ccc(C(=O)NS(=O)(=O)N3CCCO3)cc21 (stereo not drawn),4.2 to 500,< 70
COc1ccc2c(c1)C1CC1(C(=O)N1C3CCC1CN(C)C3)Cn1c-2c(C2CCCCC2)c2ccc(C(=O)NS(=O)(=O)c3ccc(C)cc3OC)cc21 (stereo not drawn),4.2 to 500,4.2 to 500
COc1ccc2c(c1)C1CC1(C(=O)N1C3CCC1CN(C)C3)Cn1c-2c(C2CCCCC2)c2ccc(C(=O)NS(=O)(=O)c3nc(C(C)(C)C)cs3)cc21 (stereo not drawn),4.2 to 500,4.2 to 500
COc1ccc2c(c1)C1CC1(C(=O)N1C3CCC1CN(C)C3)Cn1c-2c(C2CCCCC2)c2ccc(C(=O)NS(=O)(=O)C3(C)CC3)cc21 (stereo not drawn),4.2 to 500,4.2 to 500
C=C(C)S(=O)(=O)NC(=O)c1ccc2c(C3CCCCC3)c3n(c2c1)CC1(C(=O)N2C4CCC2CN(C)C4)CC1c1cc(OC)ccc1-3 (stereo not drawn),4.2 to 500,4.2 to 500
